# In the oligonucleotide strings, read from the 5' end, every base follows the letter of its sugar. An asterisk marks phosphorothioate; unmarked linkages are phosphodiester. Other units and linkages are bracketed, terminal groups are in braces. A string of capitals states the bases alone. e = 2'-O-(2-methoxyethyl) (MOE); [5mC] = 5-methylcytosine
# Assays:
# HSL = HSL mRNA expression in adipocytes (real-time PCR); type: cell-based, human; details: for HSL mRNA: differentiating adipocytes transfected with oligomeric compound; for HSL (mRNA expression): adipocytes, 250 nM oligomeric compound, day nine post-transfection, relative to control (1.0)
# HuVECs = experiment: Endothelial tube formation assay in HuVECs; details: 75 nM oligomeric compound
# aP2 = aP2 mRNA expression in adipocytes (real-time PCR); type: cell-based, human; details: for aP2 mRNA / AP2 mRNA: differentiating adipocytes transfected with oligomeric compound; for aP2 mRNA: Table 75; for AP2 (mRNA expression): adipocytes, 250 nM oligomeric compound, day nine post-transfection, relative to control (1.0)
# PPARγ = PPARγ mRNA expression in adipocytes (real-time PCR); type: cell-based, human; details: for PPAR gamma mRNA: differentiating adipocytes transfected with oligomeric compound; for PPAR gamma (mRNA expression): adipocytes, 250 nM oligomeric compound, day nine post-transfection, relative to control (1.0)
# Glut4 = Glut4 mRNA expression in adipocytes (real-time PCR); type: cell-based, human; details: for GLUT4 mRNA: differentiating adipocytes transfected with oligomeric compound; for Glut4 (mRNA expression): adipocytes, 250 nM oligomeric compound, day nine post-transfection, relative to control (1.0)
# adipocytes = experiment: Triglyceride accumulation assay in adipocytes; type: cell-based, human
# [1] = differentiating adipocytes transfected with oligomeric compound, Table 75
# [2] = differentiating adipocytes transfected with oligomeric compound
# [3] = adipocytes, 250 nM oligomeric compound, relative to control (1.0), Table 15
# [4] = adipocytes, 250 nM oligomeric compound, relative to control (1.0), Table 16
substance,measurement,setting,value
327921 (antisense e[5mC]*eT*eT*e[5mC]*e[5mC]*eA*eG*eT*e[5mC]*eG*eG*eG*eG*eA*eT*eG*eT*eT*eT*eA*e[5mC]*eA) [compound 327921],HSL mRNA,HSL; Table 75,76 percentage of untreated control (UTC)
same,% Activity Relative to UTC (tube formation),HuVECs; Table 57,96.6%
same,aP2 mRNA,aP2,76 percentage of untreated control (UTC)
same,PPAR gamma mRNA,PPARγ; Table 75,75 percentage of untreated control (UTC)
same,GLUT4 mRNA,Glut4; Table 75,36 percentage of untreated control (UTC)
same,TG (triglyceride accumulation),adipocytes; [1],56 percentage of untreated control (UTC)
327956 (antisense e[5mC]*eA*e[5mC]*eA*eG*eT*eT*eG*e[5mC]*e[5mC]*eA*eG*e[5mC]*eT*eG*eA*eG*eA*eT*eT*eA) [compound 327956],HSL mRNA,HSL,90 percentage of untreated control (UTC)
same,% Activity Relative to UTC (tube formation),HuVECs; Table 59,46.7%
same,AP2 mRNA,aP2,102 percentage of untreated control (UTC)
same,PPAR gamma mRNA,PPARγ,91 percentage of untreated control (UTC)
same,GLUT4 mRNA,Glut4,69 percentage of untreated control (UTC)
same,TG (triglyceride accumulation),adipocytes; [2],80 percentage of untreated control (UTC)
327876 (antisense eA*eA*e[5mC]*eA*e[5mC]*eT*eG*eA*eT*eT*eT*e[5mC]*eA*eA*eA*eT*eG*eG*eT*eG*e[5mC]*eT*eA) [compound 327876],HSL (mRNA expression),HSL; Table 15,0.47
same,% Activity Relative to UTC (tube formation),HuVECs; Table 56,50.0%
same,AP2 (mRNA expression),aP2; Table 15,0.75
same,PPAR gamma (mRNA expression),PPARγ; Table 15,0.57
same,Glut4 (mRNA expression),Glut4; Table 15,0.36
same,TG (triglyceride accumulation),adipocytes; [3],0.47
327892 (antisense eA*e[5mC]*eT*eT*eT*e[5mC]*eG*eG*eT*eT*eA*eT*e[5mC]*eT*eA*eG*e[5mC]*eT*eT*eT*eA) [compound 327892],HSL (mRNA expression),HSL; Table 15,0.25
same,% Activity Relative to UTC (tube formation),HuVECs; Table 56,57.1%
same,AP2 (mRNA expression),aP2; Table 15,0.31
same,PPAR gamma (mRNA expression),PPARγ; Table 15,0.32
same,Glut4 (mRNA expression),Glut4; Table 15,0.07
same,TG (triglyceride accumulation),adipocytes; [3],0.42
327927 (antisense eT*eG*eT*eA*eA*eA*e[5mC]*e[5mC]*eA*eT*eG*eA*eT*eG*eT*eG*e[5mC]*eT*eG*e[5mC]*eT*eA) [compound 327927],HSL mRNA,HSL,120 percentage of untreated control (UTC)
same,% Activity Relative to UTC (tube formation),HuVECs; Table 58,59.3%
same,AP2 mRNA,aP2,114 percentage of untreated control (UTC)
same,PPAR gamma mRNA,PPARγ,108 percentage of untreated control (UTC)
same,GLUT4 mRNA,Glut4,120 percentage of untreated control (UTC)
same,TG (triglyceride accumulation),adipocytes; [2],125 percentage of untreated control (UTC)
327917 (antisense eT*e[5mC]*eA*eA*e[5mC]*eA*eT*e[5mC]*eA*eG*eT*e[5mC]*eT*eG*eA*eT*eA*eA*eG*e[5mC]*eT*eA) [compound 327917],HSL mRNA,HSL; Table 75,26 percentage of untreated control (UTC)
same,% Activity Relative to UTC (tube formation),HuVECs; Table 57,82.8%
same,aP2 mRNA,aP2,32 percentage of untreated control (UTC)
same,PPAR gamma mRNA,PPARγ; Table 75,54 percentage of untreated control (UTC)
same,GLUT4 mRNA,Glut4; Table 75,15 percentage of untreated control (UTC)
same,TG (triglyceride accumulation),adipocytes; [1],26 percentage of untreated control (UTC)
327890 (antisense eA*eG*e[5mC]*eA*e[5mC]*eA*eA*eA*e[5mC]*eT*eA*e[5mC]*eT*eA*e[5mC]*e[5mC]*eT*e[5mC]*eA) [compound 327890],HSL (mRNA expression),HSL; Table 15,0.86
same,HSL (mRNA expression),HSL; Table 16,0.67
same,% Activity Relative to UTC (tube formation),HuVECs; Table 56,92.9%
same,AP2 (mRNA expression),aP2; Table 15,0.91
same,AP2 (mRNA expression),aP2; Table 16,0.69
same,PPAR gamma (mRNA expression),PPARγ; Table 15,1.18
same,PPAR gamma (mRNA expression),PPARγ; Table 16,0.94
same,Glut4 (mRNA expression),Glut4; Table 15,1.10
same,Glut4 (mRNA expression),Glut4; Table 16,0.67
same,TG (triglyceride accumulation),adipocytes; [3],0.92
same,TG (triglyceride accumulation),adipocytes; [4],0.61
327967 (antisense eA*e[5mC]*eT*eG*eT*eA*e[5mC]*eA*eA*eA*e[5mC]*eT*eA*e[5mC]*eT*eA*e[5mC]*e[5mC]*eT*e[5mC]*eA) [compound 327967],HSL (mRNA expression),HSL; Table 16,0.97
same,% Activity Relative to UTC (tube formation),HuVECs; Table 59,93.3%
same,AP2 (mRNA expression),aP2; Table 16,0.86
same,PPAR gamma (mRNA expression),PPARγ; Table 16,0.89
same,Glut4 (mRNA expression),Glut4; Table 16,0.56
same,TG (triglyceride accumulation),adipocytes; [4],0.90
327897 (antisense eA*e[5mC]*eA*eG*eG*e[5mC]*e[5mC]*eG*eG*eG*eA*e[5mC]*eA*eA*eG*eT*eG*e[5mC]*eA*eA*eT*eA) [compound 327897],HSL mRNA,HSL; Table 75,39 percentage of untreated control (UTC)
same,% Activity Relative to UTC (tube formation),HuVECs; Table 59,40.0%
same,aP2 mRNA,aP2,62 percentage of untreated control (UTC)
same,PPAR gamma mRNA,PPARγ; Table 75,66 percentage of untreated control (UTC)
same,GLUT4 mRNA,Glut4; Table 75,32 percentage of untreated control (UTC)
same,TG (triglyceride accumulation),adipocytes; [1],28 percentage of untreated control (UTC)
327918 (antisense e[5mC]*eT*eA*eG*eT*eA*e[5mC]*eA*eT*e[5mC]*eA*eT*e[5mC]*eT*eA*eT*eA*e[5mC]*eT*eG*eT*eA) [compound 327918],HSL mRNA,HSL; Table 75,85 percentage of untreated control (UTC)
same,% Activity Relative to UTC (tube formation),HuVECs; Table 57,96.6%
same,aP2 mRNA,aP2,91 percentage of untreated control (UTC)
same,PPAR gamma mRNA,PPARγ; Table 75,74 percentage of untreated control (UTC)
same,GLUT4 mRNA,Glut4; Table 75,66 percentage of untreated control (UTC)
same,TG (triglyceride accumulation),adipocytes; [1],65 percentage of untreated control (UTC)
327885 (antisense eA*e[5mC]*eT*eA*e[5mC]*e[5mC]*eT*eG*e[5mC]*eA*e[5mC]*eT*eG*eT*eA*eA*eG*e[5mC]*eA*e[5mC]*eT*eT*eT*eG) [compound 327885],HSL mRNA,HSL; Table 75,57 percentage of untreated control (UTC)
same,% Activity Relative to UTC (tube formation),HuVECs; Table 56,50.0%
same,aP2 mRNA,aP2,69 percentage of untreated control (UTC)
same,PPAR gamma mRNA,PPARγ; Table 75,59 percentage of untreated control (UTC)
same,GLUT4 mRNA,Glut4; Table 75,40 percentage of untreated control (UTC)
same,TG (triglyceride accumulation),adipocytes; [1],29 percentage of untreated control (UTC)
327923 (antisense eG*eA*eA*eA*eG*eA*eG*eA*e[5mC]*e[5mC]*eG*eG*eT*eT*e[5mC]*eA*e[5mC]*eT*eG*eT*eG*eA) [compound 327923],HSL mRNA,HSL; Table 75,64 percentage of untreated control (UTC)
same,% Activity Relative to UTC (tube formation),HuVECs; Table 57,48.3%
same,aP2 mRNA,aP2,65 percentage of untreated control (UTC)
same,PPAR gamma mRNA,PPARγ; Table 75,77 percentage of untreated control (UTC)
same,GLUT4 mRNA,Glut4; Table 75,54 percentage of untreated control (UTC)
same,TG (triglyceride accumulation),adipocytes; [1],88 percentage of untreated control (UTC)
327931 (antisense eA*eA*e[5mC]*e[5mC]*eA*eT*eA*e[5mC]*eA*eA*e[5mC]*e[5mC]*eT*eA*e[5mC]*eT*eA*e[5mC]*e[5mC]*eT*e[5mC]*eA) [compound 327931],HSL (mRNA expression),HSL; Table 16,0.99
same,% Activity Relative to UTC (tube formation),HuVECs; Table 58,103.7%
same,AP2 (mRNA expression),aP2; Table 16,1.00
same,PPAR gamma (mRNA expression),PPARγ; Table 16,1.56
same,Glut4 (mRNA expression),Glut4; Table 16,1.37
same,TG (triglyceride accumulation),adipocytes; [4],1.11
327886 (antisense e[5mC]*eG*e[5mC]*eG*eT*eA*e[5mC]*e[5mC]*eA*eA*eA*eA*eG*eT*eA*eA*eT*eA*eA*eT*eG) [compound 327886],HSL mRNA,HSL; Table 75,22 percentage of untreated control (UTC)
same,% Activity Relative to UTC (tube formation),HuVECs; Table 56,42.9%
same,aP2 mRNA,aP2,19 percentage of untreated control (UTC)
same,PPAR gamma mRNA,PPARγ; Table 75,25 percentage of untreated control (UTC)
same,GLUT4 mRNA,Glut4; Table 75,13 percentage of untreated control (UTC)
same,TG (triglyceride accumulation),adipocytes; [1],12 percentage of untreated control (UTC)
